Legend:
[1] = in vivo; details: mouse, ip, NMRI male mice, suspended in Tween 80 at 1% plus CMC at 2% in physiological serum, read-out: LD 50 mg/kg. i.p. NMRI mouse
Experimental: The products were administered via intraperitoneal, suspended in Tween 80 at 1% plus CMC at 2% in physiological serum.
The reference standard used was phenolbutazone.

[2] = tested on: Platelet aggregation; assay: Anti platelet aggregation activity "ex vivo" (Born), ADP-induced aggregation after administration by gastric catheter; format: in vivo, rats, Sprage Dawley; details: for inhibition at 200 mg/kg: Dose 200 mg/kg p.o., rats, ADP-induced, 5 hours after administration; for anti platelet aggregation activity (in words): compared with acetilsalicilic acid given in a double dose
Text: Platelet aggregation is induced by ADP (adenosindiphosphate) and measured in an aggregometer(Bryston) connected to a model R Omniscriber recorder.

[3] = tested on: lactescence of the serum; assay: Hyperlipaemia activity: lactescence of the serum after oral olive oil; format: in vivo; details: for Activity; Hyper Lipaemia (%): Dose 200 mg/kg orally, suspended in 10 ml/kg of olive oil, serum lactescence 6 hours after administration; for hyperlipaemia activity (in words): against clofibrate
Experimental: For the determination of the hyperlipaemia activity the products were administered orally suspended in 10 ml/kg of olive oil evaluating the lactescence of the serum 6 hours after administration.

[4] = tested on: hypercholesterolaemia induced by the administration of Triton WR 1339; assay: Hypercholesterolaemia induced by Triton WR 1339 (Garattini et al.); format: in vivo; details: among the products examined
Text: To determine the hypercholesterolaemia activity tests have been conducted with hypercholesterolaemia induced by the administration of Triton WR 1339 in accordance with S. Garattini C.Morpurgo and Passerini (Experiment 12 (1956)347). The results obtained using clofibrate (ethyl […] of p-chlorophenoxyisobutiric acid), as a reference standard are shown in Table II below.

[5] = Rattus norvegicus, Platelet, po

Question: For `CC(C)(Oc1ccc(C(=O)c2ccc(Cl)cc2)cc1)C(=O)NC(N)=O` [ITA-374, N-2-[p-(p' -chlorobenzoil)phenoxy]-2-methylpropionylurea], which LD50 [1] is on record?
Answer: > 3000 mg/kg

Question: What about the inhibition at 200 mg/kg [2, 5] of the same molecule?
Answer: 16.1%

Question: What about the “Activity; Hyper Lipaemia (%)” value [3] of the same molecule?
Answer: 28,2%

Question: With `O=C(NCN1CCOCC1)NC(=O)C(Oc1ccc(Cl)cc1)Oc1ccc(Cl)cc1` [ITA-373, N-[bis(p-chiorophenoxy)] acetyl -N'-morpholinomethylurea] as the molecule, how does the LD50 [1] read?
Answer: 1700 mg/kg

Question: And the inhibition at 200 mg/kg [2, 5]?
Answer: 11.9%

Question: With `CCOC(=O)C(C)(C)Oc1ccc(Cl)cc1` [Clofibrate, ethyl esther of p-chlorophenoxyisobutiric acid, reference compound] as the molecule, how does the “Activity; Hyper Lipaemia (%)” value [3] read?
Answer: 22,8%

Question: With `COc1ccccc1C(=O)NC(=O)NCN1CCOCC1` [ITA-418, N-(2-methoxybenzoil)-N'-morpholinomethylurea] as the molecule, how does the LD50 [1] read?
Answer: 1100 mg/kg

Question: What about the inhibition at 200 mg/kg [2, 5] of the same molecule?
Answer: 68%

Question: Which LD50 [1] does the source give for `O=C(NCN1CCOCC1)NC(=O)c1cccnc1` [ITA-378, N-nicotinoil-N'-morpholino methylurea] here?
Answer: 1700 mg/kg

Question: What about the inhibition at 200 mg/kg [2, 5] of the same molecule?
Answer: 81.9%

Question: What about the “anti platelet aggregation activity (in words)” value [2] of the same molecule?
Answer: stand out in their anti platelet aggregation activity

Question: And the “Activity; Hyper Lipaemia (%)” value [3]?
Answer: 54,7%

Question: And the “hyperlipaemia activity (in words)” value [3]?
Answer: stand out in this activity

Question: What does the source list for `O=C(COc1ccc(Cl)cc1)NC(=O)NCN1CCOCC1` [ITA-372, N-(p-chlorophenoxy)acetyl N' -morpholinomethylurea]?
Answer: LD50 [1]: 300 mg/kg; inhibition at 200 mg/kg [2, 5]: 8.1%

Question: With `CC(=O)Oc1ccccc1C(=O)O` [Acelylsalicilic acid, reference compound] as the molecule, how does the inhibition at 400 mg/kg ([2]; Rattus norvegicus, Platelet, po, 5 h, read-out: Anti platelet aggregation p.o. % inhibition (5 hours)) read?
Answer: 86.3%

Question: What does the source list for `CC(C)Cc1ccc(C(C)C(=O)NC(=O)NCN2CCOCC2)cc1` (stereo not shown) [ITA-376, N-2-(p-isobutylphenyl) propionyl-N'-morpholinomethylurea]?
Answer: LD50 [1]: 1800 mg/kg; inhibition at 200 mg/kg [2, 5]: 12.7%; Activity; Hyper Lipaemia (%) [3]: 1,3%

Question: Which results are given for `COc1ccc2c(c1)c(CC(=O)NC(=O)NCN1CCOCC1)c(C)n2C(=O)c1ccc(Cl)cc1` [ITA-377, N-[1-(p-chiorobenzoil) -2-methyl-5-methoxyindol-3-il]acetyl-N' -morpholinomethylurea]?
Answer: LD50 [1]: > 3000 mg/kg; inhibition at 200 mg/kg [2, 5]: 5.3%; Activity; Hyper Lipaemia (%) [3]: 12,6%

Question: Which results are given for `CC(C)(Oc1ccc(C(=O)c2ccc(Cl)cc2)cc1)C(=O)NC(=O)NCN1CCOCC1` [ITA-375, N-2-[p-(p'-chlorobenzoil)phenoxy]-2-methylpropionyl-N'-morpholine methylurea]?
Answer: LD50 [1]: 950 mg/kg; hypercholesterolaemia activity (in words) [4]: stands out for its efficacity; inhibition at 200 mg/kg [2, 5]: 68.5%; anti platelet aggregation activity (in words) [2]: stand out in their anti platelet aggregation activity; Activity; Hyper Lipaemia (%) [3]: 41,1%; hyperlipaemia activity (in words) [3]: stand out in this activity

Source: patent publication EP0007648A1, “New acylureas with pharmaceutical activity, the process for their preparation, and pharmaceutical compositions which contain them” (Investigacion Tecnica Y Aplicada, S.A., priority 1978, dated 1980)
